Numbering of substitutions follows the chain as printed. “And” between values parts separate entries of the source, which are not always exact repeats. Equal entries are not always repeated.
Assays:
[1] = target: T1, PfCRT variant E54A (Plasmodium falciparum, UniProt Q9N623, A220S/E54A/I356T/K76T/M74I/N326S/N75E/Q271E/R371I); experiment: CQ uptake assay, oocytes expressing E54A; assay type: cell-based
T1 sequence (Q9N623 1-424 E54A/M74I/N75E/K76T/A220S/Q271E/N326S/I356T/R371I): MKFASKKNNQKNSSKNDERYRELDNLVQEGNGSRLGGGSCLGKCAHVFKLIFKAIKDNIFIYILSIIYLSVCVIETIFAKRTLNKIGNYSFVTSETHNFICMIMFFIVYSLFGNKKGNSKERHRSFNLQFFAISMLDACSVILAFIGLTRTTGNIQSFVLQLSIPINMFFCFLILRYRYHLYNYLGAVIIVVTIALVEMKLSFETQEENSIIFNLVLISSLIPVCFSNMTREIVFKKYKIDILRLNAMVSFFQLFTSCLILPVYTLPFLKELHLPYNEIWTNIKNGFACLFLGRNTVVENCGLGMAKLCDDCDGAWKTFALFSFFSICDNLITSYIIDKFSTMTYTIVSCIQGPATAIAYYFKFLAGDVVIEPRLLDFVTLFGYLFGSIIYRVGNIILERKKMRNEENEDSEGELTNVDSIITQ
Experimental: (§1) Site-directed mutagenesis of PfCRT^Dd2 was performed as described using the megaprimer method with overlap extension[21],[54]. The primer pairs used are listed in Supplementary Table 6. Please note that a codon-optimized and oocyte-adapted version of PfCRT^Dd2 was used[22] (Supplementary Fig. 16). The resulting DNA fragment was cloned into the SP64T expression vector and verified by sequencing.
Oocytes were obtained as described previously. Briefly, adult (>2 years old) female X. laevis frogs (NASCO) were anesthetized in a cooled solution of ethyl 3-amino benzoate methanesulfonate (0.1%, w/v), followed by a surgical removal of parts of the ovary. The ovary lobes were carefully dissected and small pieces of oocytes were incubated in Ca^2+-free ND96 buffer (96 mM NaCl, 2 mM KCl, 1 mM MgCl2 buffered with 5 mM HEPES/NaOH, pH 7.5) supplemented with collagenase D (0.1%, w/v; Roche), BSA (0.5%, w/v), and 9 mm Na2HPO4 at 18 °C for 14-16 h while gentle shaking. After incubation, the oocytes were carefully washed several times with ND96 buffer (96 mM NaCl, 2 mM KCl, 1.8 mM CaCl2, 1 mM MgCl2 buffered with 5 mM HEPES/NaOH, pH 7.5) supplemented with 100 mg l^−1 gentamycin). Defolliculated and healthy-looking stage V-VI oocytes were manually selected for RNA microinjection. The RNA was generated as following: The codon-optimized sequences of PfCRT variants were cloned into the pSP64T expression vector. After vector linearization using the restriction endonucleases BamHI or SalI (New England Biolabs), transcription was performed using the in vitro SP6 mMessage mMachine Kit (Ambion)[34]. The obtained RNA was kept at −80 °C and diluted with nuclease-free water to a concentration of 0.6 μg μl^−1. […]
Drug uptake assays were performed as described previously[21],[22],[24],[34]. […] The radioactivity of each sample was measured using a liquid scintillation analyzer Tri-Carb 4910 TR (PerkinElmer). Oocytes that were injected with water instead of RNA were analyzed in parallel, representing the uptake of a drug by diffusion and/or endogenous permeation pathways. […]

[2] = target: T2, PfCRT variant D338A (Plasmodium falciparum, UniProt Q9N623, A220S/D338A/I356T/K76T/M74I/N326S/N75E/Q271E/R371I); experiment: CQ uptake assay, oocytes expressing D338A; assay type: cell-based
T2 sequence (Q9N623 1-424 M74I/N75E/K76T/A220S/Q271E/N326S/D338A/I356T/R371I): T1 sequence (Q9N623 1-424 E54A/M74I/N75E/K76T/A220S/Q271E/N326S/I356T/R371I) with A54E, D338A
Experimental: as §1
(§2) Oocytes were obtained as described previously. Briefly, adult (>2 years old) female X. laevis frogs (NASCO) were anesthetized in a cooled solution of ethyl 3-amino benzoate methanesulfonate (0.1%, w/v), followed by a surgical removal of parts of the ovary. The ovary lobes were carefully dissected and small pieces of oocytes were incubated in Ca^2+-free ND96 buffer (96 mM NaCl, 2 mM KCl, 1 mM MgCl2 buffered with 5 mM HEPES/NaOH, pH 7.5) supplemented with collagenase D (0.1%, w/v; Roche), BSA (0.5%, w/v), and 9 mm Na2HPO4 at 18 °C for 14-16 h while gentle shaking. After incubation, the oocytes were carefully washed several times with ND96 buffer (96 mM NaCl, 2 mM KCl, 1.8 mM CaCl2, 1 mM MgCl2 buffered with 5 mM HEPES/NaOH, pH 7.5) supplemented with 100 mg l^−1 gentamycin). Defolliculated and healthy-looking stage V-VI oocytes were manually selected for RNA microinjection. The RNA was generated as following: The codon-optimized sequences of PfCRT variants were cloned into the pSP64T expression vector. After vector linearization using the restriction endonucleases BamHI or SalI (New England Biolabs), transcription was performed using the in vitro SP6 mMessage mMachine Kit (Ambion)[34]. The obtained RNA was kept at −80 °C and diluted with nuclease-free water to a concentration of 0.6 μg μl^−1. Precision-bore glass capillary tubes (3.5-inch glass capillaries; Drummond Scientific Co.) were pulled on a vertical puller (P-87 Flaming/Brown micropipette puller, Sutter Instrument Co.), graduated, and placed on a microinjector (Nanoject II Auto-Nanoliter Injector, Drummond Scientific Co.). 50 nl of nuclease-free water alone (control oocytes) or 50 nl of 0.6 μg μl^−1 RNA were injected under stereomicroscopic control. Injected oocytes were incubated for 46–72 h at 18 °C with twice-daily buffer changes before usage in experiments.
Drug uptake assays were performed as described previously[21],[22],[24],[34]. […] The direction of radio-labeled drug transport is here from the mostly acidic extracellular solution (pH 4.5 or 6.0, as indicated) into the oocyte cytosol (pH ∼ 7.2), which corresponds to the efflux of drug from the acidic digestive vacuole (pH 5.2) into the parasite cytoplasm (pH 7.2). The topology of PfCRT in the oolemma is such that both the N- and C-terminus face the extracellular milieu[3],[22]. In the parasite, the N- and C-terminus face the lumen of the digestive vacuole. CQ uptake kinetics were performed by incubating oocytes in ND96 buffer adjusted to a pH of 4.5, 5.0, 5.5, or 6.0 and supplemented with 50 nM [^3H]CQ and one of 7 different CQ concentrations (10 µM, 50 µM, 100 µM, 200 µM, 300 µM, 400 µM, 500 µM CQ). The reaction was stopped at the 60 min time point, which is in the linear uptake range[22],[34] (Supplementary Fig. 17). For determination of the amount of drug uptake for each oocyte, the reaction medium was removed and the oocytes were washed three times with 2 ml of ice-cold ND96 buffer. Each oocyte was individually transferred to a scintillation vial containing 5% sodium dodecyl sulfate (200 μl) for lysis. The radioactivity of each sample was measured using a liquid scintillation analyzer Tri-Carb 4910 TR (PerkinElmer). Oocytes that were injected with water instead of RNA were analyzed in parallel, representing the uptake of a drug by diffusion and/or endogenous permeation pathways. The resulting value represents the “background“ level of drug accumulation in oocytes (in-depth discussion in[22]). […]

[3] = tested on: PfCRT variant D329N; experiment: CQ uptake assay, oocytes expressing D329N; assay type: cell-based, Plasmodium falciparum
Experimental: as §1, §2
Drug uptake assays were performed as described previously[21],[22],[24],[34]. […] The direction of radio-labeled drug transport is here from the mostly acidic extracellular solution (pH 4.5 or 6.0, as indicated) into the oocyte cytosol (pH ∼ 7.2), which corresponds to the efflux of drug from the acidic digestive vacuole (pH 5.2) into the parasite cytoplasm (pH 7.2). The topology of PfCRT in the oolemma is such that both the N- and C-terminus face the extracellular milieu[3],[22]. In the parasite, the N- and C-terminus face the lumen of the digestive vacuole. CQ uptake kinetics were performed by incubating oocytes in ND96 buffer adjusted to a pH of 4.5, 5.0, 5.5, or 6.0 and supplemented with 50 nM [^3H]CQ and one of 7 different CQ concentrations (10 µM, 50 µM, 100 µM, 200 µM, 300 µM, 400 µM, 500 µM CQ). The reaction was stopped at the 60 min time point, which is in the linear uptake range[22],[34] (Supplementary Fig. 17). […] The radioactivity of each sample was measured using a liquid scintillation analyzer Tri-Carb 4910 TR (PerkinElmer). Oocytes that were injected with water instead of RNA were analyzed in parallel, representing the uptake of a drug by diffusion and/or endogenous permeation pathways. […]

[4] = D338A, 50 µM CQ, 1 h, mean ± SEM
[5] = pH 4.5, single replicates, Fig 1d left
[6] = pH 6.0, single replicates, Fig 1d left
[7] = D329N, 50 µM CQ, 1 h, mean ± SEM

## CCN(CC)CCCC(C)Nc1ccnc2cc(Cl)ccc12 (centres unmarked) [CQ, chloroquine]
[1]; 50 µM CQ, 1 h, mean ± SEM
  Activity at pH 4.5: 1.38 ± 0.17 pmol h-1 oocyte-1
  Activity at pH 6.0: 3.36 ± 0.45 pmol h-1 oocyte-1
[1]; CQ transport at pH 4.5 / pH 6.0
  R-value: 0.44 ± 0.07
[2]; [4]
  Activity at pH 4.5: 2.35 ± 0.19 pmol h-1 oocyte-1
  Activity at pH 6.0: 5.20 ± 0.52 pmol h-1 oocyte-1
[2]; D338A, CQ transport at pH 4.5 / pH 6.0
  R-value: 0.47 ± 0.06
[2]; [5]
  D338A transport activity pH 4.5: 2.81 pmol oocyte-1 h-1 and 2.11 pmol oocyte-1 h-1 and 2.14 pmol oocyte-1 h-1
[2]; pH 4.5 vs pH 6.0, Fig 1d left
  D338A R-value: 0.58 and 0.33 and 0.49
[2]; [6]
  D338A transport activity pH 6.0: 4.85 pmol oocyte-1 h-1 and 6.43 pmol oocyte-1 h-1 and 4.33 pmol oocyte-1 h-1
[3]; [7]
  Activity at pH 4.5: 0.39 ± 0.14 pmol h-1 oocyte-1
  Activity at pH 6.0: 1.25 ± 0.32 pmol h-1 oocyte-1
[3]; D329N, CQ transport at pH 4.5 / pH 6.0
  R-value: 0.32 ± 0.07
[3]; [5]
  D329N transport activity pH 4.5: 0.14 pmol oocyte-1 h-1 and 0.71 pmol oocyte-1 h-1 and 0.33 pmol oocyte-1 h-1
[3]; [6]
  D329N transport activity pH 6.0: 0.49 pmol oocyte-1 h-1 and 1.49 pmol oocyte-1 h-1 and 1.76 pmol oocyte-1 h-1

Reference: paper PMC10349806 (Nature Communications, 2023)
